Holding throughout (assay): inhibition of tumour cell growth, NCI panel, 48 h
Experiment [1] concerns HOP-62.
Experiment [2] relates to BT-549.
The subject of experiment [3] is A549.
Experiment [4] has as its system SK-MEL-2.
Experiment [5] concerns K562.
Experiment [6] deals with KM12.
The subject of experiment [7] is UACC-257.
In experiment [8] the test system is CCRF-CEM.
For experiment [9], the system named is SK-MEL-28.
In experiment [10] the test system is IGROV-1.
Experiment [11] concerns SNB-19.
Experiment [12] deals with OVCAR-8.
Experiment [13] relates to HT-29.
Experiment [14] deals with OVCAR-4.
Experiment [15] has as its system M14.
For experiment [16], the system named is HL-60.
Experiment [17] deals with HOP-92.
The subject of experiment [18] is HCT-116.
The subject of experiment [19] is MOLT-4.
Experiment [20] concerns RXF 393.

This note sets out measurements from ChEMBL document CHEMBL1201862, “PubChem BioAssay data set” (2004).

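Step 1: Grow cells in 96-well plates. Step 2: Expose to compound for 48 hours at 5 concentrations. Step 3: Interpolate endpoints linearly; if unreached, use highest concentration. GI50 marks 50% less growth.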 Calls of active or inactive are those of the source. No stated cut-off is given here; in the data, active = GI50 up to about 1.1 µM and inactive = higher. A value given as a limit tells only on which side of the number the result lay.

Regarding `COC(=O)c1ccc(CCc2cc(O)c(Br)cc2O)cc1`, the GI50 was 17.6 µM (inactive) in experiment [1]; 4.63 µM (inactive) in [2]; 19.5 µM (inactive) in experiment [3]; 18.9 µM (inactive) in [4]; 1.74 µM (inactive) in [5]; 15.1 µM (inactive) in experiment [6]. Besides, the GI50 in experiment [7] was 15.5 µM (inactive); in experiment [8] it was 1.98 µM (inactive); in [9] it was 17.5 µM (inactive); in [10], 14.6 µM (inactive); in experiment [11], 17.4 µM (inactive); in experiment [12], 16 µM (inactive). Also, the GI50 in [13] is 16.8 µM (inactive); in [14] it was 11.2 µM (inactive); in experiment [15], 15.6 µM (inactive); in [16], 1.86 µM (inactive); in [17], 12.9 µM (inactive); in [18] it was 5.38 µM (inactive). Moreover, the GI50 is 2.42 µM (inactive) in experiment [19] and 16.6 µM (inactive) in experiment [20].
In the case of `C=C(C)[C@@H]1CCC2=C[C@H](OC2=O)[C@@]2(C)C[C@@H]2C(=O)/C=C(/C)C(=O)[C@H]1OC(C)=O`, the GI50 was 34.6 µM (inactive) in experiment [1]; 11.4 µM (inactive) in [2]; 29.2 µM (inactive) in experiment [3]; 26.3 µM (inactive) in experiment [4]; 17.7 µM (inactive) in [6]; 21.1 µM (inactive) in [7]. Also, the GI50 is 5.02 µM (inactive) in [8]; 14.8 µM (inactive) in experiment [9]; 14.1 µM (inactive) in experiment [10]; 29.2 µM (inactive) in [11]; 15.1 µM (inactive) in experiment [12]; 11.1 µM (inactive) in [13]. Further, the GI50 is 13 µM (inactive) in experiment [14]; 24.4 µM (inactive) in [15]; 58.6 µM (inactive) in experiment [16]; 41.2 µM (inactive) in [17]; 5.74 µM (inactive) in [18]; 5.66 µM (inactive) in experiment [19]. Moreover, the GI50 in [20] is 16 µM (inactive).
With `O=C1CCCC2C3CC(CN12)C1CCCCN1C3.[O-][Cl+3]([O-])([O-])O` (stereo unspecified), the GI50 in [1], in [2], in experiment [3], in experiment [4], in [6] and in [7] was > 100 µM (inactive) each time. Besides, the GI50 in experiment [8], in experiment [9], in [10], in [11], in experiment [12] and in experiment [13] was > 100 µM (inactive) each time. In addition, the GI50 in experiment [14], in [15], in experiment [16], in experiment [17], in experiment [18] and in experiment [19] was > 100 µM (inactive) each time. Also, the GI50 in experiment [20] is > 100 µM (inactive).
With `C[N+](C)(C)CCN(Cc1cccs1)c1ccccn1`, the GI50 is > 100 µM (inactive) in experiment [1]; 47.5 µM (inactive) in experiment [2]; 68.9 µM (inactive) in [3]; > 100 µM (inactive) in experiment [4]; 64.3 µM (inactive) in experiment [5]; > 100 µM (inactive) in experiment [6]. The GI50 in experiment [7], in experiment [8], in experiment [9], in experiment [10], in experiment [11] and in experiment [12] was > 100 µM (inactive) in each case. Besides, the GI50 is > 100 µM (inactive) in experiment [14]; > 100 µM (inactive) in experiment [15]; > 100 µM (inactive) in [16]; 3.6 µM (inactive) in experiment [17]; > 100 µM (inactive) in experiment [18]; > 100 µM (inactive) in experiment [20].
Turning to `C=C1C(=O)O[C@H]2C[C@@H]1C(=O)CC(C)CCCC(C)=CCC[C@@]2(C)O` (stereo partly specified), the GI50 in [1], in [2], in [3], in experiment [4], in [6] and in experiment [7] was > 25 µM (inactive) in each case. Besides, the GI50 in experiment [8], in experiment [9], in [10], in experiment [11], in [12] and in experiment [13] was > 25 µM (inactive) throughout. Besides, the GI50 in [14], in experiment [15], in experiment [16], in [17], in [18] and in experiment [19] was > 25 µM (inactive) throughout. The GI50 in experiment [20] is > 25 µM (inactive).
For `[O-][S@@+]1c2ccc3ccccc3c2N[C@@H]2[C@H]1[C@H]1C=C[C@@H]2C1`, the GI50 was 59.4 µM (inactive) in [1]; 32.4 µM (inactive) in [2]; 57.5 µM (inactive) in experiment [3]; 37.4 µM (inactive) in experiment [4]; 37.1 µM (inactive) in [5]; 31.1 µM (inactive) in experiment [6]. In addition, the GI50 in [7] is 56.6 µM (inactive); in [8] it was 23.6 µM (inactive); in experiment [9], 98.6 µM (inactive); in [10] it was 21.2 µM (inactive); in experiment [11], > 100 µM (inactive); in [12], 35.8 µM (inactive). The GI50 in experiment [13] is 34.9 µM (inactive); in experiment [14], 23.9 µM (inactive); in [15], 48.4 µM (inactive); in experiment [16], 24 µM (inactive); in [17], 38.4 µM (inactive); in [18], 39.5 µM (inactive). The GI50 was 26.6 µM (inactive) in experiment [19] and 19.5 µM (inactive) in experiment [20].
As to `O=c1[nH]nc(-c2ccccc2)n1/N=C\c1ccccc1`, the GI50 in [1], in experiment [2], in experiment [3], in [4], in experiment [5] and in [6] was > 100 µM (inactive) in each case. For the same molecule, the GI50 in experiment [7], in [8], in experiment [9], in experiment [12], in experiment [13] and in experiment [14] was > 100 µM (inactive) in each case. Also, the GI50 in [16] is > 100 µM (inactive); in experiment [17] it was > 100 µM (inactive); in [18] it was > 100 µM (inactive); in experiment [19], > 100 µM (inactive); in experiment [20] it was 13.2 µM (inactive).
Regarding `O=C(/C=C(\N=P(c1ccccc1)(c1ccccc1)c1ccccc1)C(F)(F)C(F)(F)C(F)(F)C(F)(F)C(F)(F)C(F)(F)C(F)(F)F)c1ccccc1`, the GI50 in experiment [1], in [2], in experiment [3], in experiment [4], in experiment [5] and in [6] was > 100 µM (inactive) throughout. Further, the GI50 in experiment [7], in experiment [8], in experiment [9], in experiment [10], in experiment [11] and in experiment [13] was > 100 µM (inactive) each time. Further, the GI50 in experiment [14], in experiment [15], in experiment [16], in experiment [17], in experiment [18] and in experiment [19] was > 100 µM (inactive) in each case. Further, the GI50 in [20] is > 100 µM (inactive).
Take `C/C(=N\Nc1nc2ccccc2[nH]1)c1cnccn1`: the GI50 in experiment [1] was 0.619 µM (active); in experiment [2] it was 6.04 µM (inactive); in experiment [3], 1.88 µM (inactive); in experiment [4], 1.45 µM (inactive); in experiment [5], 1.23 µM (inactive); in experiment [6] it was 1.12 µM (active). For the same molecule, the GI50 in [7] was 2.94 µM (inactive); in experiment [8], 0.31 µM (active); in [9], 0.506 µM (active); in experiment [10], 0.139 µM (active); in experiment [11], 2.72 µM (inactive); in experiment [12] it was 0.8 µM (active). The GI50 in experiment [13] is 0.394 µM (active); in experiment [14] it was 0.617 µM (active); in experiment [15] it was 0.614 µM (active); in experiment [16] it was 0.0589 µM (active); in [17], 0.385 µM (active); in experiment [18], 0.379 µM (active). Further, the GI50 is 0.232 µM (active) in experiment [19] and 0.392 µM (active) in experiment [20].
In the case of `NCCCCN(CCCN)C(=O)OCc1ccccc1`, the GI50 in experiment [1], in experiment [2], in [3], in experiment [4], in [5] and in [6] was > 100 µM (inactive) throughout. The GI50 in experiment [7], in experiment [8], in experiment [9], in experiment [10], in [11] and in [12] was > 100 µM (inactive) each time. Moreover, the GI50 in experiment [13], in experiment [14], in experiment [15], in [16], in [17] and in [18] was > 100 µM (inactive) each time. The GI50 in experiment [19] and in experiment [20] was > 100 µM (inactive) in each case.
